According to ChEMBL document CHEMBL3885881, “DrugMatrix”:

Species: Rattus norvegicus
Experiment: DrugMatrix - Regimen: Daily Repeat
Type: toxicity, organism-based, Sprague-Dawley
Design: regimen Daily Repeat, gender Male, age 6-8 weeks
Conditions: in vivo, iv, vehicle 100 % SALINE; for ABSOLUTE BASOPHIL / ABSOLUTE EOSINOPHIL / ABSOLUTE LYMPHOCYTE / ABSOLUTE MONOCYTE / ABSOLUTE SEGMENTED NEUTROPHIL / BASOPHIL / EOSINOPHIL / ERYTHROCYTE COUNT / HEMATOCRIT / HEMOGLOBIN / LEUKOCYTE COUNT / LYMPHOCYTE / MEAN CORPUSCULAR HEMOGLOBIN / MEAN CORPUSCULAR HEMOGLOBIN CONCENTRATION / MEAN CORPUSCULAR VOLUME / MONOCYTE / NEUTROPHIL / NUCLEATED RED BLOOD CELLS / PLATELET COUNT: tissue Blood
[1] = 0 mg/kg, 72 h, dose level Control, time 3 day
[2] = 0 mg/kg, 72 h, tissue Plasma, dose level Control, time 3 day
[3] = 0 mg/kg, 120 h, dose level Control, time 5 day
[4] = 0 mg/kg, 120 h, tissue Plasma, dose level Control, time 5 day
[5] = […], 72 h, dose 0.56 mg/Kg, dose level High, time 3 day
[6] = […], 72 h, tissue Plasma, dose 0.56 mg/Kg, dose level High, time 3 day
[7] = […], 120 h, dose 0.56 mg/Kg, dose level High, time 5 day
[8] = […], 120 h, tissue Plasma, dose 0.56 mg/Kg, dose level High, time 5 day

With INSULIN HUMAN the “ABSOLUTE BASOPHIL” value [1] was 0 CELLS/uL, the “ABSOLUTE EOSINOPHIL” value [1] was 46.17 CELLS/uL and the “ABSOLUTE LYMPHOCYTE” value [1] was 9089 CELLS/uL. The “ABSOLUTE MONOCYTE” value [1] was 242 CELLS/uL, the “ABSOLUTE SEGMENTED NEUTROPHIL” value [1] was 856.17 CELLS/uL and the BASOPHIL [1] was 0%. The EOSINOPHIL [1] was 0.5%, the “ERYTHROCYTE COUNT” value [1] was 5.1 x10E6/uL and the HEMATOCRIT [1] was 32.5%. The HEMOGLOBIN [1] was 12.35 G/DL, the “LEUKOCYTE COUNT” value [1] was 10.23 x10E3/uL and the LYMPHOCYTE [1] was 88.5%. For the same substance, the “MEAN CORPUSCULAR HEMOGLOBIN” value [1] was 24.18 pg, the “MEAN CORPUSCULAR HEMOGLOBIN CONCENTRATION” value [1] was 38 G/DL and the “MEAN CORPUSCULAR VOLUME” value [1] was 63.62 fL. For the same substance, the MONOCYTE [1] was 2.5%, the NEUTROPHIL [1] was 8.5% and the “NUCLEATED RED BLOOD CELLS” value [1] was 0.17 /100WBC. The “PLATELET COUNT” value [1] was 1038.67 x10E3/uL, the “ALANINE AMINOTRANSFERASE” value [2] was 51.33 u/L and the ALBUMIN [2] was 3.9 G/DL. The “ALKALINE PHOSPHATASE” value [2] was 409.33 u/L, the “ASPARTATE AMINOTRANSFERASE” value [2] was 91.67 u/L and the CHLORIDE [2] was 97.83 MEQ/L. For the same substance, the CHOLESTEROL [2] was 79.33 mg/dL, the “CREATINE PHOSPHOKINASE” value [2] was 628.67 u/L and the CREATININE [2] was 0.21 mg/dL. The “LACTATE DEHYDROGENASE” value [2] was 120.33 u/L, the PHOSPHORUS [2] was 10.48 mg/dL and the POTASSIUM [2] was 5.83 MEQ/L. The “TOTAL BILIRUBIN” value [2] was 0.2 mg/dL, the “TOTAL PROTEIN” value [2] was 6.15 G/DL and the “URIC ACID” value [2] was 0.45 mg/dL. For the same substance, the “ABSOLUTE BASOPHIL” value [3] was 0 CELLS/uL, the “ABSOLUTE EOSINOPHIL” value [3] was 12.17 CELLS/uL and the “ABSOLUTE LYMPHOCYTE” value [3] was 10388 CELLS/uL. For the same substance, the “ABSOLUTE MONOCYTE” value [3] was 140.17 CELLS/uL, the “ABSOLUTE SEGMENTED NEUTROPHIL” value [3] was 1576.33 CELLS/uL and the BASOPHIL [3] was 0%. The EOSINOPHIL [3] was 0.17%, the “ERYTHROCYTE COUNT” value [3] was 5.71 x10E6/uL and the HEMATOCRIT [3] was 35.57%. The “LEUKOCYTE COUNT” value [3] was 12.12 x10E3/uL, the LYMPHOCYTE [3] was 85.83% and the “MEAN CORPUSCULAR HEMOGLOBIN” value [3] was 23.53 pg. The “MEAN CORPUSCULAR HEMOGLOBIN CONCENTRATION” value [3] was 37.73 G/DL, the MONOCYTE [3] was 1% and the NEUTROPHIL [3] was 13%. For the same substance, the “NUCLEATED RED BLOOD CELLS” value [3] was 0.33 /100WBC, the “PLATELET COUNT” value [3] was 1347.67 x10E3/uL and the “ALANINE AMINOTRANSFERASE” value [4] was 47.83 u/L. The “ALKALINE PHOSPHATASE” value [4] was 380 u/L, the “ASPARTATE AMINOTRANSFERASE” value [4] was 81.17 u/L and the “BLOOD UREA NITROGEN” value [4] was 14.67 mg/dL. For the same substance, the “CARBON DIOXIDE” value [4] was 36.17 mmol/L, the CHLORIDE [4] was 98.17 MEQ/L and the CHOLESTEROL [4] was 69.33 mg/dL. For the same substance, the “CREATINE PHOSPHOKINASE” value [4] was 547.17 u/L, the CREATININE [4] was 0.28 mg/dL and the GLUCOSE [4] was 140.5 mg/dL. For the same substance, the “LACTATE DEHYDROGENASE” value [4] was 153.83 u/L, the LIPASE [4] was 7.83 u/L and the POTASSIUM [4] was 5.86 MEQ/L. For the same substance, the “TOTAL BILIRUBIN” value [4] was 0.17 mg/dL, the “TOTAL PROTEIN” value [4] was 6.33 G/DL and the “URIC ACID” value [4] was 0.68 mg/dL. For the same substance, the “ABSOLUTE BASOPHIL” value [5] was 0 CELLS/uL, the “ABSOLUTE EOSINOPHIL” value [5] was 0 CELLS/uL and the “ABSOLUTE LYMPHOCYTE” value [5] was 9557.33 CELLS/uL. For the same substance, the “ABSOLUTE MONOCYTE” value [5] was 233.33 CELLS/uL, the “ABSOLUTE SEGMENTED NEUTROPHIL” value [5] was 942.67 CELLS/uL and the BASOPHIL [5] was 0%. For the same substance, the EOSINOPHIL [5] was 0%, the “ERYTHROCYTE COUNT” value [5] was 5.18 x10E6/uL and the HEMATOCRIT [5] was 33.13%. For the same substance, the HEMOGLOBIN [5] was 12.73 G/DL, the “LEUKOCYTE COUNT” value [5] was 10.73 x10E3/uL and the LYMPHOCYTE [5] was 89.33%. The “MEAN CORPUSCULAR HEMOGLOBIN” value [5] was 24.6 pg, the “MEAN CORPUSCULAR HEMOGLOBIN CONCENTRATION” value [5] was 38.43 G/DL and the “MEAN CORPUSCULAR VOLUME” value [5] was 64 fL. For the same substance, the MONOCYTE [5] was 2%, the “NUCLEATED RED BLOOD CELLS” value [5] was 0.33 /100WBC and the “PLATELET COUNT” value [5] was 1173.33 x10E3/uL. For the same substance, the “ALANINE AMINOTRANSFERASE” value [6] was 50.67 u/L, the ALBUMIN [6] was 3.9 G/DL and the “ALKALINE PHOSPHATASE” value [6] was 425.67 u/L. For the same substance, the “ASPARTATE AMINOTRANSFERASE” value [6] was 87.67 u/L, the “BLOOD UREA NITROGEN” value [6] was 16 mg/dL and the “CARBON DIOXIDE” value [6] was 29.33 mmol/L. For the same substance, the CHLORIDE [6] was 98 MEQ/L, the CHOLESTEROL [6] was 73.33 mg/dL and the “CREATINE PHOSPHOKINASE” value [6] was 247.67 u/L. For the same substance, the CREATININE [6] was 0.2 mg/dL, the GLUCOSE [6] was 158.67 mg/dL and the “LACTATE DEHYDROGENASE” value [6] was 90.33 u/L. For the same substance, the LIPASE [6] was 12 u/L, the POTASSIUM [6] was 5.04 MEQ/L and the SODIUM [6] was 140.73 MEQ/L. For the same substance, the “TOTAL BILIRUBIN” value [6] was 0.17 mg/dL, the “TOTAL PROTEIN” value [6] was 6.1 G/DL and the “URIC ACID” value [6] was 0.33 mg/dL. For the same substance, the “ABSOLUTE BASOPHIL” value [7] was 0 CELLS/uL, the “ABSOLUTE EOSINOPHIL” value [7] was 0 CELLS/uL and the “ABSOLUTE LYMPHOCYTE” value [7] was 9972 CELLS/uL. For the same substance, the “ABSOLUTE MONOCYTE” value [7] was 151.33 CELLS/uL, the “ABSOLUTE SEGMENTED NEUTROPHIL” value [7] was 1610 CELLS/uL and the BASOPHIL [7] was 0%. For the same substance, the EOSINOPHIL [7] was 0%, the “ERYTHROCYTE COUNT” value [7] was 5.32 x10E6/uL and the HEMATOCRIT [7] was 33.67%. The “LEUKOCYTE COUNT” value [7] was 11.73 x10E3/uL, the LYMPHOCYTE [7] was 85% and the “MEAN CORPUSCULAR HEMOGLOBIN” value [7] was 24.17 pg. The “MEAN CORPUSCULAR HEMOGLOBIN CONCENTRATION” value [7] was 38.23 G/DL, the NEUTROPHIL [7] was 13.67% and the “NUCLEATED RED BLOOD CELLS” value [7] was 0.33 /100WBC. The “PLATELET COUNT” value [7] was 1293.67 x10E3/uL, the “ALANINE AMINOTRANSFERASE” value [8] was 53.33 u/L and the “ALKALINE PHOSPHATASE” value [8] was 426 u/L. For the same substance, the “ASPARTATE AMINOTRANSFERASE” value [8] was 73 u/L, the “BLOOD UREA NITROGEN” value [8] was 14.67 mg/dL and the “CARBON DIOXIDE” value [8] was 34.67 mmol/L. For the same substance, the CHLORIDE [8] was 98 MEQ/L, the “CREATINE PHOSPHOKINASE” value [8] was 305 u/L and the CREATININE [8] was 0.27 mg/dL. For the same substance, the GLUCOSE [8] was 134.67 mg/dL, the “LACTATE DEHYDROGENASE” value [8] was 124.33 u/L and the LIPASE [8] was 7.67 u/L. For the same substance, the PHOSPHORUS [8] was 10.33 mg/dL, the POTASSIUM [8] was 5.91 MEQ/L and the “TOTAL BILIRUBIN” value [8] was 0.2 mg/dL. The “TOTAL PROTEIN” value [8] was 6.23 G/DL and the “URIC ACID” value [8] was 0.6 mg/dL.
